From paper PMC9127252, “Synthesis of sulfur karrikin bioisosteres as potential neuroprotectives” (Beilstein Journal of Organic Chemistry, 2022)

System: MAO-B
Experiment: not given
Set-up: method as in PMID 31014820
Conditions: cited from earlier work

SMILES | IC50
Cc1c2ccscc-2oc1=O [Compound 8, 3-methyl-2H-thiopyrano[3,4-b]furan-2-one] | 0.03 µM

Target: T1, AChE from Electrophorus electricus (Electrophorus electricus, UniProt O42275)
T1 construct: purchased Sigma-Aldrich, Germany
Experiment: biochemical
Conditions: 10 µM compound, t = 25 min, triplicates, mean ± SD
Method: The compounds were further tested for their ability to inhibit AChE in vitro [24].
Acetylcholine esterase (AChE) assay
Determination of AChE activity was based on the original method by Ellman adapted for 384 well plate format. The plates were first pre-spotted with 20 nL of 10 mM DMSO solution of the compound with the use of ECHO 550® liquid handler (to reach 10 µM final concentration). Master mix solution was prepared alongside and kept on ice until dispensed in the wells. The mix consisted of 1.5 mM acetylthiocholine iodide (ATCI), 1.5 mM 5,5-dithiobis(2-nitrobenzoic acid) (DTNB) and 30 mU/mL AChE from Electrophorus electricus (Sigma-Aldrich, Germany) in 50 mM TRIS-Cl buffer, pH 7.5, containing 0.04% BSA, 50 mM NaCl and 10 mM MgCl2. 20 µL of the master mix was then dispensed into the wells of a transparent flat-bottom 384-well plate (Nunc). The microplate was briefly but vigorously mixed on an orbital shaker and placed into a Tecan SPARK microplate reader where the absorbance at 405 nm was continuously monitored for 25 min (linear range). In parallel, the no-enzyme control reaction was run to exclude interference of the compounds with the assay. The background value was subtracted from the signal of the enzyme-containing wells. Enzyme inhibition was expressed as a signal percentage compared to an uninhibited reaction at t = 25 min: % residual activity = (A405 sample/A405 control) × 100. […]
were analysed with the use of Prism 9 (GraphPad Inc., San Diego, USA). The values were measured in triplicates, and the results are p resented as means ± SD. […]

T1 sequence (O42275 24-633): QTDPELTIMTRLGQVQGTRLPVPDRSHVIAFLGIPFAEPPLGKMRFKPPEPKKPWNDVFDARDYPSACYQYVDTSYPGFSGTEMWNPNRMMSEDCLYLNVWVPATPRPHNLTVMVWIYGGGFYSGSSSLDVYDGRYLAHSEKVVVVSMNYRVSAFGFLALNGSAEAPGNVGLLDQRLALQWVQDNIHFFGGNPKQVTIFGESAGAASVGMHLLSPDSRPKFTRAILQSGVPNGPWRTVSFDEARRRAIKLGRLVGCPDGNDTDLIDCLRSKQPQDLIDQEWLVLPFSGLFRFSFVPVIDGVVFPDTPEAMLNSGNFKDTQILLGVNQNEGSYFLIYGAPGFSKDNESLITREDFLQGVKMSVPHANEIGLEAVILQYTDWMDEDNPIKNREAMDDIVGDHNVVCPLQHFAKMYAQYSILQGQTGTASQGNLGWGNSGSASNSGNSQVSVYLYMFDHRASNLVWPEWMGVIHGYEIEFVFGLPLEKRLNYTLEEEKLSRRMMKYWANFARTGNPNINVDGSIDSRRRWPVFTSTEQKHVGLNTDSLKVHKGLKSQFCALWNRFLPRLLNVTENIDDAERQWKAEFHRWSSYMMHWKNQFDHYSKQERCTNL

SMILES | AChE residual activity at 10 µM (% of untreated)
S=c1cc2ccscc-2o1 [Compound 30] | 92 ± 1 % of untreated
Cc1sccc2c(C)c(=O)oc1-2 [Compound 21] | 91 ± 2 % of untreated
Cc1cc2c(C)c(=S)oc-2co1 [Compound 11] | 93 ± 3 % of untreated
O=c1cc2ccscc-2o1 [Compound 26] | 99 ± 0.4 % of untreated
S=c1cc2ccocc-2o1 [Compound 10] | 99 ± 3 % of untreated
Cc1sccc2c(C)c(=S)oc1-2 [Compound 29] | 86 ± 2 % of untreated
Cc1occc2c(C)c(=S)oc1-2 [Compound 12] | 91 ± 2 % of untreated
Cc1c2ccscc-2oc1=S [Compound 27] | 97 ± 5 % of untreated
Cc1c2ccocc-2oc1=S [Compound 9] | 95 ± 8 % of untreated
Cc1cc2c(C)c(=S)oc-2cs1 [Compound 28] | 85 ± 1 % of untreated
Cc1cc2c(C)c(=O)oc-2cs1 [Compound 20] | 90 ± 2 % of untreated

Same assay, conditions: read-out: AChE inhibition at 10 µM screening concentration

SMILES | inhibition at 10 µM
Cc1sccc2c(C)c(=S)oc1-2 [Compound 29] | ~15%
Cc1cc2c(C)c(=S)oc-2cs1 [Compound 28] | ~15%

System: AChE
Experiment: not given
Set-up: method as in PMID 31014820
Conditions: cited from earlier work

SMILES | IC50
Cc1c2ccscc-2oc1=O [Compound 8, 3-methyl-2H-thiopyrano[3,4-b]furan-2-one] | 0.08 ± 0.006 µM
Cc1cc2c(C)c(=O)oc-2co1 [Compound 3, reference compound] | 0.37 ± 0.02 µM

Same assay, conditions: in words; cited from earlier work

SMILES | inhibition effects on AChE
Cc1c2ccscc-2oc1=O [Compound 8, 3-methyl-2H-thiopyrano[3,4-b]furan-2-one] | submicromolar
Cc1cc2c(C)c(=O)oc-2co1 [Compound 3, reference compound] | submicromolar

System: seed germination
Experiment: not given
Set-up: method as in doi:10.1016/j.sajb.2013.12.003
Conditions: compared with KAR1; cited from earlier work

SMILES | germination activity
Cc1c2ccscc-2oc1=O [Compound 8, 3-methyl-2H-thiopyrano[3,4-b]furan-2-one] | lower germination activity than KAR1
